Key:
cardiac myocytes [1] = assay: Peptide protection against hypoxia-acidosis death (DNA fragmentation analyses); type: cell-based, rat; conditions: peptide 10 PM (20 μg/ml); for protection against hypoxia-acidosis death: 24-48 h hypoxia with acid accumulation; for protection (quantitative DNA fragmentation analyses): n=3
Experimental: (§1) Quantitative Analysis of Apoptosis. Cells were examined for morphologic evidence of apoptosis or necrosis by staining with anti-myosin antibody and the fluorescent DNA-binding dyes Hoechst 33342 and propidium iodide (PI), exactly as previously described (26;30). Genomic DNA fragmentation analyses were also as described previously (26;30).
Peptides were added to cardiac myocyte cultures at a concentration of 10 PM (20 μg/ml) in serum-free defined medium (DMEM/high glucose/TIB) as described previously (26). Control cultures contained 20 μg/ml BSA. Cultures were exposed to 24-48 h of hypoxia with acid accumulation, also as described previously (26). The results using peptide 1 (23 aa N-BNIP3) are shown in FIG. 7 (−is control +is with peptide treatment).

cardiac myocytes [2] = assay: DNA fragmentation in cardiac myocytes subjected to hypoxia-acidosis; type: cell-based, rat; conditions: for Fragmentation of cardiac myocyte DNA by hypoxia-acidosis with MPTP inhibitor: 48 h time point, DUB 200 μM; for protection against DNA fragmentation with MPTP inhibitor: after 72 h hypoxia-acidosis
Experimental: Cardiac Myocyte Culture and Hypoxia. Methods utilized for the isolation and culture of primary neonatal rat cardiac myocytes and exposure to hypoxia have been described previously (28;29). Experiments were performed in defined serum-free DMEM/M-199 (4:1) medium. Oxygen was continuously monitored and maintained at <10 mm Hg.
as §1
Antisense. Antisense oligonucleotides were complementary to bases 10-40 and 600-630 of the BNIP3 gene; sequences 5′[…] (SEQ ID NO:1) and 5′[…] (SEQ ID NO:2) respectively. Random sequence oligonucleotides contained the same bases in a scrambled sequence. FITC-tagged oligonucleotides (2 μM final of each) in DMEM were mixed with lipofectamine (0.1 μg/ml, final concentration) and incubated with cardiac myocytes at 37° C. for 8 hours before treatments. Immediately before exposing to hypoxia, fresh medium with oligonucleotides was added. Fluorescence was visualized after 24, 36, and 48 hrs of exposure to hypoxia. Fresh oligonucleotides (400 nM) were added at 24 and 36 hrs.

Compound	protection against hypoxia-acidosis death (cardiac myocytes [1])	protection (quantitative DNA fragmentation analyses) (cardiac myocytes [1]; 24 h hypoxia with acid accumulation)	protection (quantitative DNA fragmentation analyses) (cardiac myocytes [1]; 48 h hypoxia with acid accumulation)	Fragmentation of cardiac myocyte DNA by hypoxia-acidosis with MPTP inhibitor (cardiac myocytes [2])	protection against DNA fragmentation with MPTP inhibitor (cardiac myocytes [2])
GRKKRRQRRRPPQC-----MSQSGEENLQGSWVELHFSNGNG-(C-term) (GRKKRRQRRRPPQCMSQSGEENLQGSWVELHFSNGNG; Synthetic Peptide Fragments) [Peptide 1, TAT-peptide containing N-terminal amino acids 1-23 of BNIP3]	strong and significant protection	> 50%	> 50%		
GRKKRRQRRRPPQC----GDMEKILLDAQHESGRSSKSSHCDSP-(C-term) (GRKKRRQRRRPPQCGDMEKILLDAQHESGRSSKSSHCDSP; Synthetic Peptide Fragments) [Peptide 2, TAT-peptide containing N-terminal amino acids 24-49 of BNIP3]	less effective				
CO[C@H](C/C=C\C=C\CC/C=C/C[C@H](C)/C=C/C(=C\C(=O)O)CC(=O)O)/C(C)=C\C=C(/C)C(=O)O [BA, bongrekic acid]				blocked	mediated protection
CCCCCCCCCCC1=C(C)C(=O)C(OC)=C(OC)C1=O [DUB, decylubiquinone]				blocked	mediated protection
